# Measurements: PMC9817974, “Pharmacokinetic Basis for Using Saliva Matrine Concentrations as a Clinical Compliance Monitoring in Antitumor B Chemoprevention Trials in Humans” (Cancers, 2022)
# What was measured:
# [1] = Single-dose oral pharmacokinetic study of ATB tablets in healthy human subjects (plasma and saliva, non-compartmental analysis); format: in vivo; settings: after 2400 mg ATB oral administration; LLOQ of Dict […]
# Procedure: In addition, in vivo correlation between plasma and saliva concentrations was determined as the secondary outcome.
# The ratio of drug concentration in plasma and saliva were calculated using Equations (1) and (2). (1) RCmax=Cmax saliva/Cmax plasma (2) RAUC=AUC0–24 saliva/AUC0–24 plasma […]
# S2.1. Human Pharmacokinetic Study Design
# The study was conducted in two phases. Two self-volunteered subjects participated in the study […]
# Participants refrained from consumption of […]
# dosing blood and saliva samples were collected. Each participant received single-dose oral […]
# saliva sample kit for salivary collection. Plasma samples were then collected by centrifugation of […]
# hour post-administration. […]
# administration. […] Throughout the […]
# collected and saline lock was removed. Participants returned the next day morning for 24-hour […]
# Participants fasted 8-12 hours before each
# [2] = Sample stability of ATB components (bench, freeze-thaw, short-term, long-term); format: physicochemical; settings: in % (unit assumed)
# Procedure: samples for calibration were prepared. The study and QC samples were prepared on the same day as the UPLC-MS/MS analysis was done.
# Calibration curves were prepared the same way as described in section S1.2.2. The linearity of each calibration curve was determined by plotting the peak area ratio of Matr, Maac, Dict, and Frax to I.S. in plasma. […] The lower limit of […] was defined based on a signal-to-noise ratio of 10:1.
# S1.2.4 Extraction recovery and matrix effect
# The extraction recoveries of Matr, Maac, Dict, and Frax were determined by comparing the relative peak areas obtained from blank plasma spiked with analytes and those obtained from water spiked with the same amounts of analytes. Matrix effect was determined by comparing the peak areas of blank plasma extracts spikes with analytes and I.S. with those of the standard solutions dried and reconstituted with mobile phase. The quality control samples were prepared in plasma.
# Bench work (25°C for 4 hours), short-term (-20°C for 7 days), long-term (-80°C for 4 months) and three freeze-thaw cycle stabilities were determined.
# [3] = as above; format: physicochemical; settings: in % (unit assumed); remark: listed apart in the source
# [4] = Stability of ATB tablets (ICH storage conditions); settings: for remaining percentage in ATB tablets, Long term 3 months / remaining percentage in ATB tablets, Long term 6 months / remaining percentage in ATB tablets, Long term 12 months: 25 ± 2 °C/60 ± 5% RH
# Procedure: Two independent batches of ATB tablets were tested according to International Conference on Harmonization (ICH) Guideline for long-term (12 months at 25 ± 2 °C/60 ± 5% RH), intermediate (6 months at 30 ± 2 °C/65 ± 5% RH), and accelerated (40 ± 2 °C/75 ± 5% RH) stability [12].
SMILES,detection in plasma and saliva samples [1],"Stability, 3 cycles freeze-thaw ([2]; HQC concentration level)","Stability, Bench work (4 hrs, 25 oC) ([2]; HQC concentration level)","Stability, Short-term (7 days, -20 oC) ([2]; HQC concentration level)","Stability, 3 cycles freeze-thaw ([2]; LOQ concentration level)","Stability, 3 cycles freeze-thaw ([2]; MQC concentration level)","Stability, Bench work (4 hrs, 25 oC) ([2]; MQC concentration level)","Stability, Long-term (6 months, -80 oC) ([3]; HQC concentration level)","Stability, Bench work (4 hrs, 25 oC) ([3]; LOQ concentration level)","Stability, Long-term (6 months, -80 oC) ([3]; LOQ concentration level)","Stability, Short-term (7 days, -20 oC) ([3]; LOQ concentration level)","Stability, Long-term (6 months, -80 oC) ([3]; MQC concentration level)","Stability, Short-term (7 days, -20 oC) ([3]; MQC concentration level)","remaining percentage in ATB tablets, Long term 3 months [4]","remaining percentage in ATB tablets, Long term 6 months [4]","remaining percentage in ATB tablets, Long term 12 months [4]","remaining percentage in ATB tablets, Intermediate 3 months ([4]; 30 ± 2 °C/65 ± 5% RH)","remaining percentage in ATB tablets, Intermediate 6 months ([4]; 30 ± 2 °C/65 ± 5% RH)","remaining percentage in ATB tablets, Accelerated term 3 months ([4]; 40 ± 2 °C/75 ± 5% RH)","remaining percentage in ATB tablets, Accelerated term 6 months ([4]; 40 ± 2 °C/75 ± 5% RH)"
"CC1=C2C(=O)O[C@@H](c3ccoc3)[C@]2(C)CCC1 [Frax, fraxinellone]",not detected in any study sample,98.9 ± 2.2,89.1 ± 9.9,99.1 ± 8.0,105.7 ± 3.2,104.0 ± 1.3,90.5 ± 8.0,94.8 ± 0.4,108.5 ± 5.0,85.7 ± 3.6,89.6 ± 0.5,90.1 ± 5.6,96.6 ± 5.8,92.4 ± 6.4%,81.2 ± 10.1%,93.8 ± 1.0%,112.5 ± 7.2%,113.1 ± 7.2%,84.3 ± 13.2%,115.8 ± 1.5%
"Oc1ccc2c(c1)OC[C@H]1c3cc4c(cc3O[C@@H]21)OCO4 [Maac, maackiain]",detected in 30 min plasma sample of only one participant,114.7 ± 2.8,108.7 ± 8.1,91.2 ± 8.0,113.3 ± 6.4,114.6 ± 3.2,109.1 ± 5.9,92.3 ± 5.7,93.8 ± 11.6,87.0 ± 5.1,99.6 ± 1.4,85.5 ± 0.4,89.1 ± 11.0,81.1 ± 5.3%,101.6±0.2%,89.1 ± 4.2%,,,,
